Data from ChEMBL document CHEMBL3596148, “Meridianin derivatives as potent Dyrk1A inhibitors and neuroprotective agents” (Bioorg Med Chem Lett, 2015).

What was measured:
[1] = molecular target: Dual specificity tyrosine-phosphorylation-regulated kinase 1A (Homo sapiens, UniProt Q13627); assay: Inhibition of Dyrk1A (unknown origin) using Woodtide as substrate after 30 mins by P81 membrane assay in presence of [33P]-g-ATP
[2] = Cytotoxicity against human SH-SY5Y cells assessed as cell viability at 30 uM after 24 hrs by MTT assay relative to control; assay type: cell-based; conditions: read-out: Activity
SH-SY5Y = assay: Neuroprotective activity against glutamate-induced neurotoxicity in human SH-SY5Y cells assessed as cell viability at 10 uM incubated for 30 mins prior to glutamate challenge measured after 24 hrs by MTT assay (reference value: 73.8 +/- 4.5%); assay type: functional; conditions: read-out: Activity
[3] = molecular target: T1, Dual specificity tyrosine-phosphorylation-regulated kinase 2 (Homo sapiens, UniProt Q92630); assay: Inhibition of Dyrk2 (unknown origin) using Woodtide as substrate after 30 mins by P81 membrane assay in presence of [33P]-g-ATP
T1 sequence (Q92630 whole entry): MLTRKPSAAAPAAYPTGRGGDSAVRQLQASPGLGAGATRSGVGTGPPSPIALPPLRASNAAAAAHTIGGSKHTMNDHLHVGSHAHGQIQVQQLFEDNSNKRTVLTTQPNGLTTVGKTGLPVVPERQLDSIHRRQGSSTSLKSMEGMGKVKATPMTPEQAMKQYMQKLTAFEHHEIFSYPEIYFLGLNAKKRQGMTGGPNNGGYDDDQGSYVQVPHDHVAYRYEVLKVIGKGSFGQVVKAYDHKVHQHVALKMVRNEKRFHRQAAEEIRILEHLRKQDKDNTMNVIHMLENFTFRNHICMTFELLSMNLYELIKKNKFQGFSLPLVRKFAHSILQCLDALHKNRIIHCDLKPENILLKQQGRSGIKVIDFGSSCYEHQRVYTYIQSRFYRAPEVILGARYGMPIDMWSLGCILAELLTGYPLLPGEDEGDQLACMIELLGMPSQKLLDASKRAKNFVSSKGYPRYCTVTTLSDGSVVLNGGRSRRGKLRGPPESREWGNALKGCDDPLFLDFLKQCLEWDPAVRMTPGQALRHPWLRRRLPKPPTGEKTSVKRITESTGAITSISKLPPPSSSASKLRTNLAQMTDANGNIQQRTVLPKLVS

[4] = molecular target: T2, Dual specificity tyrosine-phosphorylation-regulated kinase 3 (Homo sapiens, UniProt O43781); assay: Inhibition of Dyrk3 (unknown origin) using Woodtide as substrate after 30 mins by P81 membrane assay in presence of [33P]-g-ATP
T2 sequence (O43781 whole entry): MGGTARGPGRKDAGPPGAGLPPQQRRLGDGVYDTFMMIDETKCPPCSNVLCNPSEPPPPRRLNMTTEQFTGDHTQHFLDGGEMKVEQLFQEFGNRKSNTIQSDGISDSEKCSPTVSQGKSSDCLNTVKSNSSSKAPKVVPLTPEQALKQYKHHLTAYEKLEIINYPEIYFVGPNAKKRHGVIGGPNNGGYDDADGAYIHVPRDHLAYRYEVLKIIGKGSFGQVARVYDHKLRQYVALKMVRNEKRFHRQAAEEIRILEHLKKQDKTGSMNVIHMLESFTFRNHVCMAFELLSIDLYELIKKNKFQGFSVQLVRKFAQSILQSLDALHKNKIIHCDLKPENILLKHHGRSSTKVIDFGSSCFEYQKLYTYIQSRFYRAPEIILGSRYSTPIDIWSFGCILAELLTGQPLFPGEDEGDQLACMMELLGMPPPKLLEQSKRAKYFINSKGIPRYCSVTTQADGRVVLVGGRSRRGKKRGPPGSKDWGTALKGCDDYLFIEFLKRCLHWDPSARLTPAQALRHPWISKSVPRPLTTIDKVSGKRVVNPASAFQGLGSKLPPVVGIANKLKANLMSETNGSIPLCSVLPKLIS

[5] = molecular target: RAC-alpha serine/threonine-protein kinase (Homo sapiens) (UniProt P31749); assay: Inhibition of PKBalpha (unknown origin) at 0.5 uM relative to control
Chain of RAC-alpha serine/threonine-protein kinase (Homo sapiens) (P31749 whole entry): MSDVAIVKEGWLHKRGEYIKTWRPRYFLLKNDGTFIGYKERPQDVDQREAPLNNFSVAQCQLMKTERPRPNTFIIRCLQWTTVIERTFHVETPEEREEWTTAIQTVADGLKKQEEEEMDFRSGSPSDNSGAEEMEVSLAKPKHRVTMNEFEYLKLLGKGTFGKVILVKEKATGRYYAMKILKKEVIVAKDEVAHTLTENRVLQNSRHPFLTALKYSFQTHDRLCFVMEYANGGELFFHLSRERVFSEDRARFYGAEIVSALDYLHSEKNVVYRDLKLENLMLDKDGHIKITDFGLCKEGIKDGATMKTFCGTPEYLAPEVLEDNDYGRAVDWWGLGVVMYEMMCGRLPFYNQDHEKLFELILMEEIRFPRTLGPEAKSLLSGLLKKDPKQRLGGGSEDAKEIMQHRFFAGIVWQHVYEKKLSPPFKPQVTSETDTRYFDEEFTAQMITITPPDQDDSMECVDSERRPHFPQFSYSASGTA

[6] = molecular target: Protein kinase C alpha type (Homo sapiens) (UniProt P17252); assay: Inhibition of PKCalpha (unknown origin) at 0.5 uM relative to control
[7] = molecular target: Cyclin-dependent kinase 2 (Homo sapiens) (UniProt P24941); assay: Inhibition of CDK2 (unknown origin) at 0.5 uM relative to control
[8] = molecular target: Aurora kinase B (Homo sapiens) (UniProt Q96GD4); assay: Inhibition of Aurora B (unknown origin) at 0.5 uM relative to control
Chain of Aurora kinase B (Homo sapiens) (Q96GD4 whole entry, canonical isoform): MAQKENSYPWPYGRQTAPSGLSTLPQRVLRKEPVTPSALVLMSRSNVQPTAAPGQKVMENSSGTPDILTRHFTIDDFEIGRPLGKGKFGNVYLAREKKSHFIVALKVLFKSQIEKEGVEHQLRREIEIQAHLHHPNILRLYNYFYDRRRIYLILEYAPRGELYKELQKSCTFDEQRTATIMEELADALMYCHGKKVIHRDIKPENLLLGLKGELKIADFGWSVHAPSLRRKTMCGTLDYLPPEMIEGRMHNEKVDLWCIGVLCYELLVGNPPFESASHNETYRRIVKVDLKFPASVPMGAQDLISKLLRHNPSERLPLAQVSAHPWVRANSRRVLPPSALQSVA

[9] = molecular target: Casein kinase I isoform alpha (Homo sapiens) (UniProt P48729); assay: Inhibition of CK1 (unknown origin) at 0.5 uM relative to control
Chain of Casein kinase I isoform alpha (Homo sapiens) (P48729 2-337 limits assumed): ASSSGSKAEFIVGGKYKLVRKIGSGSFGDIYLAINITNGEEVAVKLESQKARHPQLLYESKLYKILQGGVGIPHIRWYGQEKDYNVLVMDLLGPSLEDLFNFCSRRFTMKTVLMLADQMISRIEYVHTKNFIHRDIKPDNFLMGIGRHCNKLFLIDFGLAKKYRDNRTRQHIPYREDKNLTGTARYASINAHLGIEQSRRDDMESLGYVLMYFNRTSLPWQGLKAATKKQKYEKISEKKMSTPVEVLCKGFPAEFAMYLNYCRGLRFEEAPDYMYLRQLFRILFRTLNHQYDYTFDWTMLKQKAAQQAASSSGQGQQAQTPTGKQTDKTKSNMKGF

[10] = molecular target: T3, Inhibitor of nuclear factor kappa-B kinase subunit beta (Homo sapiens) (UniProt O14920); assay: Inhibition of IKKbeta (unknown origin) at 0.5 uM relative to control
T3 sequence (whole entry): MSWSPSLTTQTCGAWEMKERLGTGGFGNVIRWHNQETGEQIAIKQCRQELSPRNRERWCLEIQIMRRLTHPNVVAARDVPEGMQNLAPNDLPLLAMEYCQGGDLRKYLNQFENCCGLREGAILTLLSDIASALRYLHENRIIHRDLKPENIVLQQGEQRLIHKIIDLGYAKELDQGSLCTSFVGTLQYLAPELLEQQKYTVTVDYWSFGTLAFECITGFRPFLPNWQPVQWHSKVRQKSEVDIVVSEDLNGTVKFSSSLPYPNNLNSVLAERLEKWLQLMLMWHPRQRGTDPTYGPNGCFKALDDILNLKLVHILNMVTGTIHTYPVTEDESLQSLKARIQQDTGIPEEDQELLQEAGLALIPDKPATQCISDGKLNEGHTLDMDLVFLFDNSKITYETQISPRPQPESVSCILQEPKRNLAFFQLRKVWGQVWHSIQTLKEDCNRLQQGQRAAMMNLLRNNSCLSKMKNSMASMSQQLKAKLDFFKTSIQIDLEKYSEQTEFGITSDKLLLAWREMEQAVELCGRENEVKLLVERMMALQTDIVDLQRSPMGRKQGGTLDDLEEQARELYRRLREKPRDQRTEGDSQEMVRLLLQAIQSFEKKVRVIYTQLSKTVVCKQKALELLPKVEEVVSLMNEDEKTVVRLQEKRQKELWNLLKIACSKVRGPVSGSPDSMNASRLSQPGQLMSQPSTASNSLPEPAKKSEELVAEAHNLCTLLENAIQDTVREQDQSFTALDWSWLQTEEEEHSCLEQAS

[11] = molecular target: Tyrosine-protein kinase ABL1 (Homo sapiens) (UniProt P00519); assay: Inhibition of Abl (unknown origin) at 0.5 uM relative to control
Chain of Tyrosine-protein kinase ABL1 (Homo sapiens) (P00519 whole entry): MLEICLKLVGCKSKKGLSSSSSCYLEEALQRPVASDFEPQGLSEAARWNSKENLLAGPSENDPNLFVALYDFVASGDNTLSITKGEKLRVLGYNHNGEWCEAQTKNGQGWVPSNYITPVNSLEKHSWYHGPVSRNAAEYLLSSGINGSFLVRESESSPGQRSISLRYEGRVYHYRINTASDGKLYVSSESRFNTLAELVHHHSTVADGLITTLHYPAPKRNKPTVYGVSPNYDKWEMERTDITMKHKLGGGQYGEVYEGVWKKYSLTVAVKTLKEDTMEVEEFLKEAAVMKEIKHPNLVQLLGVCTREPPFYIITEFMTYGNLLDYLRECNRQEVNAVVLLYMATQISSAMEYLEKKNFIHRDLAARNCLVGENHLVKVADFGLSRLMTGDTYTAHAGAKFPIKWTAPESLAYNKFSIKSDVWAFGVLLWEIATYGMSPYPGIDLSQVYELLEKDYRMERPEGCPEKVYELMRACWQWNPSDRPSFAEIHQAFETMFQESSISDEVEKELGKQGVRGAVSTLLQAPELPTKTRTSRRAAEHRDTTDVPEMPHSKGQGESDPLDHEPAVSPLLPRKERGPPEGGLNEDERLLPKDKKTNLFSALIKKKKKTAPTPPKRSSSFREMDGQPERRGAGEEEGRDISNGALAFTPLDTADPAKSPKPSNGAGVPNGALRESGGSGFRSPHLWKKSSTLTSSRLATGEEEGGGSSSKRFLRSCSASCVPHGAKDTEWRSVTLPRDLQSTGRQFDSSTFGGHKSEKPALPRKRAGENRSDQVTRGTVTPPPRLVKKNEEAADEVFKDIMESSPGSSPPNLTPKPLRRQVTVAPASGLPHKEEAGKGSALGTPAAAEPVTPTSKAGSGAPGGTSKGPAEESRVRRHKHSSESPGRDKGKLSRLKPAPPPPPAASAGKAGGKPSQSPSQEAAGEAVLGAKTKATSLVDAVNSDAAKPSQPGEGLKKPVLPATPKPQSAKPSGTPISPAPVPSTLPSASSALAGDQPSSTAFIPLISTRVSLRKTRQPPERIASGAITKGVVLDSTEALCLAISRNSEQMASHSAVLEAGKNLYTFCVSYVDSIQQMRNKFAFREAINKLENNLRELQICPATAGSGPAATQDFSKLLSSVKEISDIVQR

[12] = molecular target: Insulin-like growth factor 1 receptor (Homo sapiens) (UniProt P08069); assay: Inhibition of IGF-1R (unknown origin) at 0.5 uM relative to control
Chain of Insulin-like growth factor 1 receptor (Homo sapiens) (P08069 31-736 limits assumed): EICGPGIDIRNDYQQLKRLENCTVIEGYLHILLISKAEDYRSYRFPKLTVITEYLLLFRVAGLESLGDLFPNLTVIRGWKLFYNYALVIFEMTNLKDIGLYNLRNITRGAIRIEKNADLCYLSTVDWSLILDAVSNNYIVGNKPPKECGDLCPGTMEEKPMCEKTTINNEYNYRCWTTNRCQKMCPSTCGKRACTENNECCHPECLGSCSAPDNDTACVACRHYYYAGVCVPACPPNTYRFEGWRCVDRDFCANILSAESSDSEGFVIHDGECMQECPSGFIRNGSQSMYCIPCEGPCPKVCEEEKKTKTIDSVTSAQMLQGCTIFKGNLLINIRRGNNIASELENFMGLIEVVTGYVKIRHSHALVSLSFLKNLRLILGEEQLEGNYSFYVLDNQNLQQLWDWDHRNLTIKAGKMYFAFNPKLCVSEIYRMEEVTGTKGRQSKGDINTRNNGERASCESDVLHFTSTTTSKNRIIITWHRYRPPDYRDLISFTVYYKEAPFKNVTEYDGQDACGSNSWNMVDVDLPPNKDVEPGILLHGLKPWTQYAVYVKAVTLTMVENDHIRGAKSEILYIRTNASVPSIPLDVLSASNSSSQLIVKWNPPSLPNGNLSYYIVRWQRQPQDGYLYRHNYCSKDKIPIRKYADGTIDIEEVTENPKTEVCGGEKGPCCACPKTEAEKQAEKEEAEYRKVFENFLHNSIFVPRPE
Chain of Insulin-like growth factor 1 receptor (Homo sapiens) (P08069 741-1367 limits assumed): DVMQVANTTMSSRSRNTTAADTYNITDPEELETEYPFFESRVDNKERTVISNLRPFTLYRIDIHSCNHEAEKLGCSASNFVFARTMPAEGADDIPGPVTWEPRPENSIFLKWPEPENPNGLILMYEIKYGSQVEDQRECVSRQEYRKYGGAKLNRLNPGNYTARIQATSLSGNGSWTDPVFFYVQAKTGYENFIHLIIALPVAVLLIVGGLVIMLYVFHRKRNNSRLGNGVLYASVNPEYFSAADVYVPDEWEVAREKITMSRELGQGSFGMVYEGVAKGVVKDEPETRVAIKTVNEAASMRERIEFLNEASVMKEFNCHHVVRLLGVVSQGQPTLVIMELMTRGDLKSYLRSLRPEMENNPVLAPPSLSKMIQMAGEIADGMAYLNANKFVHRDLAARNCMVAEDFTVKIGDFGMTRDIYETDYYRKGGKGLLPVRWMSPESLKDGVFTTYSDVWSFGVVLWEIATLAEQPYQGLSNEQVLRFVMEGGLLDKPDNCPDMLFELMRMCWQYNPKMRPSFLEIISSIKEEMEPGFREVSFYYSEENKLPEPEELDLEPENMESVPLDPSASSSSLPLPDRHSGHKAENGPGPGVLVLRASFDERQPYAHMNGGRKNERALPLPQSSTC

[13] = molecular target: Insulin receptor (Homo sapiens) (UniProt P06213); assay: Inhibition of IR (unknown origin) at 0.5 uM relative to control
[14] = molecular target: Vascular endothelial growth factor receptor 1 (Homo sapiens) (UniProt P17948); assay: Inhibition of VEGFR1 (unknown origin) at 0.5 uM relative to control
Chain of Vascular endothelial growth factor receptor 1 (Homo sapiens) (P17948 whole entry): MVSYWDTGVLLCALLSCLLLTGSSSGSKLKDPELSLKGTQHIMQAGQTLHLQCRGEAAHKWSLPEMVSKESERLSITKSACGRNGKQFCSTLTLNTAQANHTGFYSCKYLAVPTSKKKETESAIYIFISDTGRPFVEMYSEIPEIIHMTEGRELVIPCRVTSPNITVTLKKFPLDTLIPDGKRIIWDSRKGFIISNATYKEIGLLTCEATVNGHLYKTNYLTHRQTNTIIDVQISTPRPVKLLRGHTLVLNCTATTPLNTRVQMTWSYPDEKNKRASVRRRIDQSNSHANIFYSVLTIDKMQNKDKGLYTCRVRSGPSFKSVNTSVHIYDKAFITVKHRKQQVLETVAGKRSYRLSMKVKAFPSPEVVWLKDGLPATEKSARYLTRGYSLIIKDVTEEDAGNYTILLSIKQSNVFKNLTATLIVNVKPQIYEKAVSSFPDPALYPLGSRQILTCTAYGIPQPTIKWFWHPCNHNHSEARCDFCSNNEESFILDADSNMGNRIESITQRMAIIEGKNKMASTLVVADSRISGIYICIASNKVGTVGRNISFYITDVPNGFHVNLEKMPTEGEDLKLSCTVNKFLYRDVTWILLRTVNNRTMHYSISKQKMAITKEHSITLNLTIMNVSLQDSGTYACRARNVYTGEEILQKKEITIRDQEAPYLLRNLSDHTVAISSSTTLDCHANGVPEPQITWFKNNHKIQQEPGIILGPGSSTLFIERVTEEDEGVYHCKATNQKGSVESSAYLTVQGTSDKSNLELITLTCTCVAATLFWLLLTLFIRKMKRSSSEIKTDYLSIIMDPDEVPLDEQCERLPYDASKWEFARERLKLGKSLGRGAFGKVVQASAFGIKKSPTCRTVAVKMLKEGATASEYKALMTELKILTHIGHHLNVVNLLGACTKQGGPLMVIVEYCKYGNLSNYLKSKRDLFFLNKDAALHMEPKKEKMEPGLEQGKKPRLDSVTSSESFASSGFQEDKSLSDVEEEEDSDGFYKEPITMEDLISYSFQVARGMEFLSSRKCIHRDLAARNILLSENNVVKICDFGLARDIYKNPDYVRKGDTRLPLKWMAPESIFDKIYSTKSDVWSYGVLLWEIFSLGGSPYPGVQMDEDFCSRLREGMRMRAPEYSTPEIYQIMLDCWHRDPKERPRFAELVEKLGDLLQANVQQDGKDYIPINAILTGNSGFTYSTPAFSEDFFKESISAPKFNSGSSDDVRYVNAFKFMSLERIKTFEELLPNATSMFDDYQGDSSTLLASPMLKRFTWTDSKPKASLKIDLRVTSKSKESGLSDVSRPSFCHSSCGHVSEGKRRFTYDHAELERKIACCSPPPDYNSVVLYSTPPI

With `Nc1nccc(-c2cn(C(=O)N3CCOCC3)c3ccc(Br)cc23)n1` as the compound, how does the IC50 [1] read?
The IC50 was 500 nM.

What about the viability at 24 h, 30 µM [2] of the same compound?
Its viability at 24 h, 30 µM is 87%.

And the viability at 10 µM (SH-SY5Y)?
The viability at 10 µM was 82.5%.

What about the IC50 [3] of the same compound?
The IC50 was 1400 nM.

And the IC50 [4]?
The IC50 was 2200 nM.

What about the inhibition [5] of the same compound?
The inhibition was 16.4%.

And the inhibition [6]?
Its inhibition is 26.5%.

And the inhibition [7]?
Its inhibition is 0%.

What about the inhibition [8] of the same compound?
The inhibition was 0%.

And the inhibition [9]?
Its inhibition is 13.8%.

And the inhibition [10]?
Its inhibition is 7.8%.

And the inhibition [11]?
The inhibition was 3%.

And the inhibition [12]?
Its inhibition is 2.1%.

What about the inhibition [13] of the same compound?
Its inhibition is 11.1%.

And the inhibition [14]?
Its inhibition is 0%.
